According to patent US20090232735A1, “USE OF FRUCTOSE-BASED THERAPIES FOR THE TREATMENT OF CANCER” (CEDARS-SINAI MEDICAL CENTER, priority 2005, published 2009):

Tests used:
Type in all cases: cell-based, human
[1] = system: ER positive MCF-7 breast cancer cells; test: Breast cancer cell proliferation (MTT assay), MCF-7
Experimental: Estrogen receptor (ER) positive MCF-7, and ER negative MDA-MB231 cells were plated in 5 mM fructose or glucose for times between 8-72 h, and proliferative rates measured using MTT assay. *, p<0.05; **, p<0.01.
FIG. 5 depicts fructose-mediated increased breast cancer proliferation in accordance with an embodiment of the present invention. ER positive MCF-7, and ER negative MDA-MB231 cells were plated in a range of fructose or glucose concentrations (5-25 mM) for 72 h, after which proliferative rates were measured using an MTT assay. *, p<0.05 for concentrations between 5-25 mM fructose versus glucose.
Standard media for breast cancer cell culture contain either 5-7 mM (low) and 12-25 mM (high) glucose concentrations. Estrogen receptor (ER) positive MCF-7, and ER negative MDA-MB231 cells were cultured overnight in 2 mM glucose standard DMEM medium containing 10% fetal bovine serum prior to incubation for periods between 8, and 72 hours in standard DMEM medium containing 10% fetal bovine serum, and 5 mM glucose or 5 mM fructose.
Proliferative rates were then measured in replicate (minimum of 6) aliquot wells of the breast cancer cells grown in glucose, or fructose containing medium. […] In separate experiments, proliferative rates of the MCF-7, and MDA-MB231 breast cancer cells were compared following culture in a range of fructose, and glucose concentrations (2-25 mM) for 72 hours.

[2] = system: PANC-1 pancreatic cancer cells; test: PANC-1 pancreatic cancer cell proliferation (MTS assay)
Experimental: FIG. 13 depicts higher proliferation rates in pancreatic cancer cells in fructose (5.5 mM) than glucose (5.5 mM) containing medium in accordance with an embodiment of the present invention. PANC-1 cells were pre-incubated in 2 mM glucose, after which they were plated in 5.5 mM fructose or glucose for times between 12-72 h, after which proliferative rates were measured using an MTS assay. Proliferative rates are expressed as the percentage difference between cells grown in 5.5 mM fructose versus 5.5 mM glucose. p<0.01 for times>48 h.
FIG. 14 depicts proliferation rates of pancreatic cells in different fructose or glucose concentrations in accordance with an embodiment of the present invention. PANC-1 cells were plated in a range of fructose or glucose concentrations (5-25 mM) for 72 h, after which proliferative rates were measured using an MTS assay. *, p<0.05 for concentrations between 5-25 mM fructose versus glucose.
FIG. 17 depicts cell proliferation regardless of co-existent glucose concentration in accordance with an embodiment of the present invention. PANC-1 cells were pre-incubated in 2 mM glucose prior to treatment with a range of concentrations (0-15 mM) mixed with a range of fructose concentrations (0-15 mM) for 72 h. PANC-1 cell proliferative rates were then measured using the MTS assay (absorbance in arbitrary units).
FIG. 35 depicts inhibition of pancreatic cancer PANC-1 cell proliferation by incubation with the transketolase inhibitor, oxythiamine (0.5-2 mM) for 72 h in accordance with an embodiment of the present invention. Proliferative rates were measured using the MTS proliferation assay.
Standard media for maintenance cancer cell line culture, including pancreatic cancer cells such as PANC-1 cells contain either low—(5-7 mM), or high—(12-25 mM) glucose concentrations. Clearly, apart from the setting of hyperglycemia, as in patients with diabetes, the glucose concentrations in which pancreatic cancer cells are maintained in vitro are much higher than normal physiological conditions, which range between 2-5 mM glucose. […] Therefore, the inventors first pre-treated the pancreatic cancer cells overnight in standard DMEM medium containing low physiological glucose concentrations (2 mM glucose), and standard 10% fetal bovine serum. The pancreatic cancer cells were then incubated for times between 12, and 96 hours in standard DMEM medium containing 10% fetal bovine serum, and 5.5 mM glucose or 5.5 mM fructose. Proliferative rates were then measured in replicate (minimum of 6) aliquot wells of the pancreatic cancer cells, and the change (expressed as percent increase) in proliferative rates compared between cells grown in glucose, or fructose containing medium.
This first result intrigued the inventors, but given there is little documentation regarding physiological fructose concentrations, the inventors first considered that the “apparent” pro-proliferative effects of fructose were simply a consequence of the highly stylized in vitro experimental conditions, and that if the pancreatic cancer cells were cultured in higher glucose concentrations, this would result in similar proliferative rates to those the inventors observed following culture in 5.5 mM fructose. Therefore, in the next experiments, the inventors compared proliferative rates of the PANC-1 pancreatic cancer cells following culture for 72 h in a range of fructose, and glucose concentrations (2-25 mM). This timepoint was chosen as the inventors had seen maximal pancreatic cancer cell proliferation in 5.5 mM fructose at 72 h. […] While not wishing to be bound by any particular theory, the inventors believe that this latter finding may be because the PANC-1 cells are proliferating at close to maximal capacity by 72 h, once they are exposed to comparatively low fructose concentrations (5 mM). MTS assay was employed to measure pancreatic cancer cell proliferative rates, which utilizes mitochondrial oxidation to quantify cell proliferation. […]

[3] = system: fructokinase-1 (FK-1) mRNA; test: Fructokinase-1 mRNA by Northern blot in MCF-7 cells; details: MCF-7, 5.5 mM fructose, 24 h
Experimental: FIG. 9 depicts Northern blot analysis of fructokinase-1 mRNA levels in MCF-7 breast cancer cells in accordance with an embodiment of the present invention. 20 μg total RNA was used to measure FK-1 mRNA levels in the MCF-7 cells following growth in 2 mM glucose, 5.5 mM glucose, or 5.5 mM fructose for 24 h. FK-1 was also detected in human liver, with lower levels in muscle tissue.
In additional studies, the inventors used Northern blot to confirm significant FK-1 mRNA expression in the breast cancer cells. As depicted in FIG. 9, fructokinase-1 mRNA expression was detected in MCF-7 cells cultured in 2, and 5.5 mM glucose, and 5.5 mM fructose, and in human muscle and liver tissue.

In the case of `O=C(CO)[C@@H](O)[C@H](O)[C@H](O)CO` [fructose], the “proliferative rates in fructose compared to glucose” value ([1]; MCF-7, 5 mM fructose vs 5 mM glucose, 8-72 h) was “higher proliferative rates”, the “proliferative rates in 5 mM fructose compared to 25 mM glucose” value ([1]; MCF-7, 72 hours, 5 mM fructose vs 5-fold higher glucose (25 mM)) was “higher proliferative rates” and the “difference in proliferative rates, fructose vs glucose” value ([2]; PANC-1, 5.5 mM fructose vs 5.5 mM glucose, 48 h) was about 13%. For the same molecule, the “higher proliferative rate, fructose vs glucose” value ([2]; PANC-1, 5.5 mM fructose vs 5.5 mM glucose, 72 h) was 23%, the “proliferative rates in 5 mM fructose compared to 25 mM glucose” value ([2]; PANC-1, 72 h) was “higher proliferative rates” and the “cell proliferation with admixed glucose (0-15 mM) and fructose (0-15 mM)” value ([2]; PANC-1, 72 h, fructose concentrations of 6 mM and above, regardless of glucose concentration) was “an increase in cell proliferation”. For the same molecule, the “FK-1 mRNA expression (Northern blot)” value [3] was “Highest FK-1 expression”.
